In US4746675A, “External pharmaceutical composition” (Teijin Limited, priority 1983, dated 1988):
Where two headings read alike, the source gives them in different places.

What was measured:
[1] = concentration of indomethacin in rat blood after application of ointment to the back; details: for Concentration of indomethacin in the blood: rat, in vivo
Procedure: An ointment was prepared from 1 part by weight of indomethacin, 10 parts by weight of compound (168) and 89 parts by weight of a hydrophilic ointment (composed of 250 parts of white Vaseline, 220 parts by weight of stearyl alcohol, 120 parts by weight of propylene glycol, 15 parts by weight of sodium laurylsulfate, 0.25 part by weight of ethyl p-hydroxybenzoate, 0.15 part by weight of propyl p-hydroxybenzoate and a small amount of purified water). The back of a rat (body weight about 250 g) was cut by an electric hair-clipper, and 100 mg of the resulting ointment was applied by a finger to a circular unhaired portion, 4 cm in diameter. The blood was drawn from the tail of the rat periodically, and the concentration of indomethacin in the blood was determined periodically by high-performance liquid chromatography.
Various ointments were prepared from 1 part by weight of indomethacin, 10 parts of each of various penetration enhancers shown in Table 2 and the hydrophilic ointment, and tested as in Example 1.

carrageenan edema = carrageenan edema inhibiting effect of betamethasone valerate ointments; format: in vivo, rat; details: for Percentage inhibition based on the control: 0.15% betamethasone valerate, 9.85% Compound (168) or none; for Percentage inhibition vs. control: Table 5, betamethasone valerate ointment with penetration enhancer
Procedure: An ointment was prepared from 0.15 part by weight of betamethasone valerate, 9.85 parts by weight of compound (168) and 90 parts by weight of the hydrophilic ointment.
In accordance with the method of R. Passarella et al. [Argneim. Forsch 30, (I), Nr. 4, 647-651 (1980)], the carrageenan edema inhibiting effect of the above ointment was examined. Specifically, 0.1 ml of a 1% carrageenan suspension in 0.9% NaCl solution was injected into the tip of the right leg of a rat (body weight 150-175 g). The foot volume was measured immediately after administration of carrageenan and 3, 5, and 6 hours after the administration by means of a mercury displacement device. 0.5, 1 and 2 hours after the administration of carrageenan, 100 mg of the ointment was well […] into each of the sites which underwent inflammation.
Various ointments were prepared from 0.15 part by weight of betamethasone valerate, […] of the various penetration enhancers shown in Table 5, and 85 parts by weight of the hydrophilic ointment, and tested in the same way as in Example 23.

serum calcium level [2] = assay: serum calcium after intrarectal administration of calcitonin composition to rats; format: in vivo, rat; details: versus the comparative suppository
Excerpt: Cacao butter (93 parts by weight) and 7 parts by weight of compound (168) or compound (173) were uniformly mixed, and (Asu^1.7)-eel calcitonin was gradually added and mixed to form a uniform composition. The composition was slightly warmed, and placed into a suppository container to form a suppository for rats having a diameter of about 3 mm and a length of about 6 mm. This suppository contained 0.7 MRC unit of calcitonin. The suppository was intrarectally administered to a rat, and the concentration of calcium in the blood serum after administration was measured by using a calcium measuring kit (made by Iatoron Co.).
Various […] were prepared from cacao butter, the various penetration enhancers shown in Table 12 and [Asu^1.7 ]-eel calcitonin, and tested in the same way as in Example 85.

blood glucose level = assay: blood glucose after intrarectal administration of hog insulin suppository to rabbits; format: in vivo, rabbit; details: for Percent decrease of the blood glucose level from that before the administration: hog insulin 9.6 units, intrarectal, rabbit; for absorption of insulin from the suppository: versus the comparative suppository
Procedure: Sixty parts by weight of fractionated coconut oil and 10 parts by weight of compound (168) or compound (173) were uniformly mixed, and then hog insulin was gradually added to form a uniform dispersion. The dispersion was filled in a gelatin capsule for suppositories to form a gelatin capsular suppository. These suppository contained 9.6 units of insulin. The suppository was intrarectally administered to a rabbit, and the blood glucose level after administration was measured by the glucose oxidase method.

[3] = concentration of cephalothin sodium in blood after intrarectal administration of suppository; format: in vivo, Beagle dog; details: versus the comparative suppository
Procedure: Eighty parts by weight of cacoa butter, 10 parts by weight of compound (168) and 10 parts by weight of cephalothin sodium were uniformly mixed and then slightly warmed. The mixture was filled in a suppository container to form a suppository containing 1 g of the mixture. The suppository was administered intrarectally to a Beagle dog, and the concentration of cephalothin sodium in the blood after administration was measured by the cup method.

serum calcium level [4] = assay: serum calcium after nasal administration of calcitonin nasal drop to rabbits; format: in vivo, New Zealand white male rabbit; details: for Percent decrease of the serum calcium level from before administration: [Asu^1.7]-eel calcitonin nasal drop, 15 units/50 μl, rabbit
Procedure: This nasal drop contained 15 units/50 μl of calcitonin. Fifty microliters of the nasal drop was administered to the nasal cavity of a New Zealand white male rabbit, and the concentration of calcium in the serum after administration was measured by using a calcium measuring kit (made by Iatron Co.).

[5] = test system: eye (cornea, iris, conjunctiva); assay: primary eye irritation (Draize) in rabbits; format: in vivo, white native male rabbits; details: 2.4% soln, average of three rabbits
Procedure: enhancers of this invention shown in Table 17 was applied dropwise to one eye of white native male rabbits (body weight 2.0 to 3.0 kg; 3 per group) which, it had been ascertained, were free from any trouble at the cornea, iris and conjunctiva. Nothing was applied to the other eye. Thus, irritation of the absorption aid to the mucous membrane of the eyes were examined, and scores were calculated in accordance with the Draize's eye irritation evaluating method [Association of Foods, "Drugs and Cosmetics" (1957)].
As a control, sodium laurylsulfate, a kind of surface-active agent, was evaluated in the same way, and the results are also shown in Table 17.

[6] = diffusion of drug through egg shell membrane in diffusion cell; format: in vitro ADME
Procedure: A diffusion cell was partitioned by an egg shell membrane. […] While maintaining a temperature of 37° C., the two liquid phases were stirred, and after a lapse of a predetermined period of time, the amount of the drug which diffused into the acceptor side from the donor side was measured.
The diffusion cell used was a glass cell for use in an ordinary diffusion experiment. The egg shell was obtained by removing the contents of an egg from the shell, immersing the shell in 0.7% acetic acid for 30 minutes, subjecting it to ultrasonication for 15 minutes, and carefully peeling the membrane from the shell.
A control test was carried out in the same way as above except that only the drug was added to the donor side.
The amount of the drug which diffused to the acceptor side was measured 30 minutes later, and compared with the control.
The relative amount of the drug diffused from the drug-penetration enhancer system was calculated by taking the amount of the drug diffused from the control donor side as 100. […] Bull., Vol. 20, p.

[7] = 30 minutes, drug 0.05% with compound (168) 1.0% on donor side, drug alone = 100, 37° C.

Compound: CCCCCCCC/C=C\CCCCCCCC(=O)OCC(O)COC(=O)[C@@H]1CCC(=O)N1 (stereo partly shown) [Compound (168), 2-hydroxy-3-oleoyloxy-1-pyroglutamyloxypropane]
- absorption of indomethacin from the ointment ([1]; versus the comparative ointments): better
- Percentage inhibition based on the control (carrageenan edema; 3 hrs): 19.7%
- Percentage inhibition based on the control (carrageenan edema; 5 hrs): 36.8%
- Percentage inhibition based on the control (carrageenan edema; 6 hrs): 39.2%
- absorption of calcitonin from the suppository (serum calcium level [2]): better
- Percent decrease of the blood glucose level from that before the administration (blood glucose level; 30 min): 32.8%
- Percent decrease of the blood glucose level from that before the administration (blood glucose level; 1 hr): 36.3%
- Percent decrease of the blood glucose level from that before the administration (blood glucose level; 2 hrs): 19.1%
- Percent decrease of the blood glucose level from that before the administration (blood glucose level; 3 hrs): 5.2%
- absorption of insulin from the suppository (blood glucose level): better
- absorption of cephalothin sodium from the suppository [3]: better
- Percent decrease of the serum calcium level from before administration (serum calcium level [4]; 1 hr): 6.1%
- Percent decrease of the serum calcium level from before administration (serum calcium level [4]; 2 hrs): 4.0%
- Percent decrease of the serum calcium level from before administration (serum calcium level [4]; 3 hrs): 1.8%
- Percent decrease of the serum calcium level from before administration (serum calcium level [4]; 5 hrs): 0.9%
- absorption of calcitonin from the nasal composition (serum calcium level [4]; versus the comparative composition): better
- Primary irritation score, Conjunctiva ([5]; 1 hour): 2.0
- Primary irritation score, Cornea ([5]; 1 hour): 0
- Primary irritation score, Iris ([5]; 1 hour): 0
- Primary irritation score, Total ([5]; 1 hour): 2.0
- Primary irritation score, Conjunctiva ([5]; 3 hours): 2.0
- Primary irritation score, Cornea ([5]; 3 hours): 0
- Primary irritation score, Iris ([5]; 3 hours): 0
- Primary irritation score, Total ([5]; 3 hours): 2.0
- Primary irritation score, Conjunctiva ([5]; 6 hours): 1.3
- Primary irritation score, Cornea ([5]; 6 hours): 0
- Primary irritation score, Iris ([5]; 6 hours): 0
- Primary irritation score, Total ([5]; 6 hours): 1.3
- Primary irritation score, Conjunctiva ([5]; 24 hours): 0
- Primary irritation score, Cornea ([5]; 24 hours): 0
- Primary irritation score, Iris ([5]; 24 hours): 0
- Primary irritation score, Total ([5]; 24 hours): 0
- Primary irritation score, Conjunctiva ([5]; 48 hours): 0
- Primary irritation score, Cornea ([5]; 48 hours): 0
- Primary irritation score, Iris ([5]; 48 hours): 0
- Primary irritation score, Total ([5]; 48 hours): 0
- Primary irritation score, Conjunctiva ([5]; 72 hours): 0
- Primary irritation score, Cornea ([5]; 72 hours): 0
- Primary irritation score, Iris ([5]; 72 hours): 0
- Primary irritation score, Total ([5]; 72 hours): 0
- Primary irritation score, Conjunctiva ([5]; 96 hours): 0
- Primary irritation score, Cornea ([5]; 96 hours): 0
- Primary irritation score, Iris ([5]; 96 hours): 0
- Primary irritation score, Total ([5]; 96 hours): 0
- Primary irritation score, Conjunctiva ([5]; 168 hours): 0
- Primary irritation score, Cornea ([5]; 168 hours): 0
- Primary irritation score, Iris ([5]; 168 hours): 0
- Primary irritation score, Total ([5]; 168 hours): 0

Compound: COC1=CC(=O)C[C@@H](C)[C@]12Oc1c(Cl)c(OC)cc(OC)c1C2=O [Griseofulvin]
- Relative amount of the drug diffused [6]: 209

Compound: Cc1ccc(Cl)c(OCC(O)CNC(C)(C)C)c1 (stereo not shown) [Bupranolol]
- Relative amount of the drug diffused [6]: 141

Compound: O=C(O)c1ccccc1O [Salicylic acid]
- Relative amount of the drug diffused [6, 7]: 203

Compound: CN1[C@@H]2C[C@@H](OC(=O)[C@H](CO)c3ccccc3)C[C@H]1[C@@H]1O[C@@H]12 [Scopolamine]
- Relative amount of the drug diffused [6, 7]: 116

Compound: CCCCCCCCCCCCCCCCCC(=O)OCC(O)COC(=O)[C@@H]1CCC(=O)N1 (stereo partly shown) [Compound (173), 2-hydroxy-3-octadecanoyloxy-1-pyroglutamyloxypropane]
- Percentage inhibition vs. control (carrageenan edema; 3 hrs): 15.3%
- Percentage inhibition vs. control (carrageenan edema; 5 hrs): 32.3%
- Percentage inhibition vs. control (carrageenan edema; 6 hrs): 33.4%
- absorption of calcitonin from the suppository (serum calcium level [2]): better
- Percent decrease of the blood glucose level from that before the administration (blood glucose level; 30 min): 29.4%
- Percent decrease of the blood glucose level from that before the administration (blood glucose level; 1 hr): 33.3%
- Percent decrease of the blood glucose level from that before the administration (blood glucose level; 2 hrs): 18.6%
- Percent decrease of the blood glucose level from that before the administration (blood glucose level; 3 hrs): 3.7%
- absorption of insulin from the suppository (blood glucose level): better

Compound: CCN(CC)CCOC(=O)c1ccc(N)cc1 [Procaine]
- Relative amount of the drug diffused [6, 7]: 149

Compound: CN1C(=O)CN=C(c2ccccc2)c2cc(Cl)ccc21 [Diazepam]
- Relative amount of the drug diffused [6, 7]: 144

Compound: Nc1ccc(C(=O)O)cc1 [p-Aminobenzoic acid]
- Relative amount of the drug diffused [6]: 122

Compound: C[C@](N)(Cc1ccc(O)c(O)c1)C(=O)O [Methyldopa]
- Relative amount of the drug diffused [6, 7]: 137

Compound: CC(=O)OCC1=C(C(=O)O)N2C(=O)[C@@H](NC(=O)Cc3cccs3)[C@H]2SC1 [Cephalothin]
- Relative amount of the drug diffused [6, 7]: 139

Compound: iso-Sorbitol nitrate
- Relative amount of the drug diffused [6, 7]: 128

Compound: O=C1CC[C@@H](C(=O)O)N1 [Pyroglutamic acid, pyroglutamic acid]
- Concentration of indomethacin in the blood ([1]; 60 min): 1.4 µg/mL
- Concentration of indomethacin in the blood ([1]; 180 min): 2.2 µg/mL
- Concentration of indomethacin in the blood ([1]; 300 min): 2.0 µg/mL
- Concentration of indomethacin in the blood ([1]; 420 min): 1.8 µg/mL
- Concentration of indomethacin in the blood ([1]; 1440 min): 0.7 µg/mL

Compound: COc1ccc2c(c1)c(CC(=O)O)c(C)n2C(=O)c1ccc(Cl)cc1 [Indomethacin]
- Relative amount of the drug diffused [6, 7]: 217

Compound: O=C(O)c1cc(=O)c2c(OCC(O)COc3cccc4oc(C(=O)O)cc(=O)c34)cccc2o1 [Sodium cromoglicate]
- Relative amount of the drug diffused [6]: 159

Compound: Urokinase
- Relative amount of the drug diffused [6, 7]: 115

Compound: O=c1[nH]cc(F)c(=O)[nH]1 [5-Fluorouracil]
- Relative amount of the drug diffused [6, 7]: 208

Compound: CN1C(C(=O)Nc2ccccn2)=C(O)c2ccccc2S1(=O)=O [Piroxicam]
- Relative amount of the drug diffused [6]: 177

Compound: CC1(C)O[C@@H]2C[C@H]3[C@@H]4CCC5=CC(=O)C=C[C@]5(C)[C@@]4(F)[C@@H](O)C[C@]3(C)[C@]2(C(=O)CO)O1 [Triamcinolone acetonide]
- Relative amount of the drug diffused [6, 7]: 214

Compound: CN(C)CCCN1c2ccccc2Sc2ccc(Cl)cc21 [Chlorpromazine]
- Relative amount of the drug diffused [6, 7]: 133
